# Where “and” joins values, the source holds several entries; their conditions need not be identical. Identical values can stand only once.
# Key:
# [1] = system: 2-phenyl-1,4-benzoquinone-induced writhing; assay: 2-phenyl-1,4-benzoquinone-induced writhing test in mice (analgesic activity, phenylquinone writhing); assay type: in vivo
# Excerpt: The compounds of formula I of the present invention are useful as analgesic agents due to their ability to alleviate pain in mammals. […] Exptl. Biol. Med., 95, 729 (1957)].
# [2] = system: spontaneous hypertensive rat; assay: Antihypertensive activity in the spontaneous hypertensive rat by the indirect tail cuff method; assay type: in vivo; conditions: mean arterial blood pressure, third day
# Method: In this procedure a group of five animals are treated orally for three days with the test compound in relation to a control group of the same number. The drop in blood pressure is measured on the third day following administration.
smiles,measurement,setting,value
"CCC(=O)O[C@](Cc1ccccc1)(c1ccccc1)[C@H](C)CN(C)C [propoxyphene, reference compound]","Analgesic PQW, % Inhibition of Writhing","[1]; 3.9 mg/kg s.c., reference compound",50%
"C[C@H](CS)C(=O)N1CCC[C@H]1C(=O)O [captopril, reference compound]",Decrease in Blood Pressure,"[2]; 10 mg/kg p.o., reference compound",33 mmHg
"CN(C)CC1Oc2ccccc2C(c2ccccc2)n2cccc21.Cl (single isomer, unassigned) [11-dimethylaminomethyl-5-phenyl-5H,11H--pyrrolo[2,1-c][1,4]b] [11-Dimethylaminomethyl-5-phenyl-5H,11H-pyrrolo[2,1-c][1,4]benzoxazepine hydrochloride]","Analgesic PQW, % Inhibition of Writhing","[1]; 20 mg/kg, s.c., hydrochloride",24% and 35%
"O=C(O)C(=O)O.c1ccc(CN2CCC(C3Oc4ccccc4C(c4ccccc4)n4cccc43)CC2)cc1 (centres unmarked) [11-(1-Benzyl-4-piperidinyl)-5-phenyl-5H,11H-pyrrolo[2,1-c][1,4]benzoxazepine oxalate]",Decrease in Blood Pressure,"[2]; 3 mg/kg, p.o.",44 mmHg
same,"Analgesic PQW, % Inhibition of Writhing","[1]; 20 mg/kg, s.c.",34%

# Source: patent US4794110A, “5-Aryl-11-substituted-5H,11H-pyrrolo[2,1-c][1,4]benzoxazepined as analgesic and hypotensive agents” (Hoechst-Roussel Pharmaceuticals, Inc., priority 1987, dated 1988)
